From patent publication US20100137136A1, “HERBICIDE/SAFENER COMBINATION” (BAYER CROPSCIENCE AG, priority 2008, published 2010)

Columns and labels:
Assay type in all cases: in vivo
Corn (Aventura) [1] = test: Pre-emergence herbicidal effect and safener effect, corn; conditions: for % effect (with safener) / % Reduction: herbicide I-2 80 g a.i./ha + safener 200 g a.i./ha; for % Reduction: reduction of effect by safener
Source text: (§1) Seeds or rhizome pieces of mono- and dicotyledonous weed plants and crop plants were planted in peat pots in sandy loam and covered with earth. The herbicide/safener active ingredient combinations according to the invention, formulated as water-soluble powders or suspensions, and, in parallel experiments, the correspondingly formulated individual active ingredients were then applied to the surface of the covering earth at an application rate of 600 to 800 l of water/ha (converted) in a variety of dosages.

Corn (Aventura) [2] = test: Post-emergence herbicidal effect and safener effect, corn; conditions: for % Reduction: reduction of effect by safener
Experimental: (§2) Seeds or rhizome pieces of mono- and dicotyledonous harmful plants and of crop plants are planted in peat pots in sandy loam, covered with earth and grown in a greenhouse under good growth conditions. Alternatively to this, harmful plants occurring in the paddy rice cultivation are cultivated in pots in which water stands up to 2 cm above the soil surface. 10 to 20 days after sowing, the test plants are treated in the one to three-leaf stage. The herbicide/safener active ingredient combinations according to the invention, formulated as water-soluble powders or suspensions, and, in parallel experiments, the correspondingly formulated individual active ingredients are sprayed onto the green plant parts in various dosages using an application rate of 300 l of water/ha (converted) and, after the test plants have remained in the greenhouse under optimum growth conditions for 2-3 weeks, the effect of the preparations is scored visually in comparison with untreated controls. In the case of rice or in the case of harmful plants which occur in the rice cultivation, the active ingredients are also placed directly into the irrigation water (application analogous to the so-called granules application) or sprayed onto plants and into the irrigation water.

Rice (Ballila) = test: Post-emergence herbicidal effect and safener effect, rice; conditions: for % effect (with safener) / % Reduction: herbicide I-2 80 g a.i./ha + safener 200 g a.i./ha; for % Reduction: reduction of effect by safener
Experimental: as §2

Wheat (Triso) [3] = test: Post-emergence herbicidal effect and safener effect, wheat; conditions: for % effect (with safener) / % Reduction: herbicide I-2 20 g a.i./ha + safener 50 g a.i./ha; for % Reduction: reduction of effect by safener
Experimental: as §2

Wheat (Triso) [4] = test: Pre-emergence herbicidal effect and safener effect, wheat; conditions: for % Reduction: reduction of effect by safener
Source text: as §1

Barley (Adonis) = test: Post-emergence herbicidal effect and safener effect, barley; conditions: herbicide 20 g a.i./ha, no safener, scored visually vs untreated controls
Experimental: as §2

[5] = herbicide I-2 80 g a.i./ha + safener 200 g a.i./ha
[6] = herbicide I-2 20 g a.i./ha + safener 50 g a.i./ha
[7] = herbicide I-2 80 g a.i./ha alone
[8] = herbicide I-2 20 g a.i./ha alone

CCOC(=O)C1=NOC(c2ccccc2)(c2ccccc2)C1 [Isoxadifen-ethyl, ethyl 5,5-diphenyl-2-isoxazoline-carboxylate]
% effect (with safener) (Corn (Aventura) [1]): 25% | % Reduction (Corn (Aventura) [1]): 29% | % effect (with safener) (Corn (Aventura) [2]; [5]): 20% | % Reduction (Corn (Aventura) [2]; [5]): 50% | % effect (with safener) (Rice (Ballila)): 20% | % Reduction (Rice (Ballila)): 33% | % effect (with safener) (Wheat (Triso) [3]): 0% | % Reduction (Wheat (Triso) [3]): 100% | % effect (with safener) (Wheat (Triso) [4]; [6]): 10% | % Reduction (Wheat (Triso) [4]; [6]): 67%

CC1COc2ccccc2N1C(=O)C(Cl)Cl (stereo not drawn) [Compound S3-4, 4-dichloroacetyl-3,4-dihydro-3-methyl-2H-1,4-benzoxazine]
% effect (with safener) (Corn (Aventura) [2]; [5]): 10% | % Reduction (Corn (Aventura) [2]; [5]): 75%

FC(F)(F)C(=NOCC1OCCO1)c1ccc(Cl)cc1 [Compound S11-2, 1-(4-chlorophenyl)-2,2,2-trifluoro-1-ethanone O-(1,3-dioxolan-2-ylmethyl)oxim]
% effect (with safener) (Wheat (Triso) [4]; [6]): 20% | % Reduction (Wheat (Triso) [4]; [6]): 33%

CC1(C)OC(c2ccco2)CN1C(=O)C(Cl)Cl (racemic) [Compound S3-10, (RS)-3-dichloroacetyl-5-(2-furyl)-2,2-dimethyloxazolidine]
% effect (with safener) (Corn (Aventura) [2]; [6]): 20% | % Reduction (Corn (Aventura) [2]; [6]): 50% | % effect (with safener) (Wheat (Triso) [4]; [6]): 10% | % Reduction (Wheat (Triso) [4]; [6]): 67%

CCCCCC(C)OC(=O)COc1ccc(Cl)c2cccnc12 (stereo not drawn) [Compound S2-1, 1-methylhexyl(5-chloro-8-quinolinoxy)acetate]
% effect (with safener) (Corn (Aventura) [2]; [6]): 20% | % Reduction (Corn (Aventura) [2]; [6]): 50% | % effect (with safener) (Rice (Ballila)): 10% | % Reduction (Rice (Ballila)): 67% | % effect (with safener) (Wheat (Triso) [4]; [5]): 20% | % Reduction (Wheat (Triso) [4]; [5]): 33%

CCOC(=O)C1=NN(c2ccc(Cl)cc2Cl)C(C)(C(=O)OCC)C1 (stereo not drawn) [Mefenpyr-diethyl, ethyl 1-(2,4-dichlorophenyl)-5-(ethoxycarbonyl)-5-methyl-2-pyrazoline-3-carboxylate]
% effect (with safener) (Corn (Aventura) [1]): 20% | % Reduction (Corn (Aventura) [1]): 43% | % effect (with safener) (Corn (Aventura) [2]; [6]): 20% | % Reduction (Corn (Aventura) [2]; [6]): 50% | % effect (with safener) (Wheat (Triso) [3]): 0% | % Reduction (Wheat (Triso) [3]): 100% | % effect (with safener) (Wheat (Triso) [4]; [6]): 20% | % Reduction (Wheat (Triso) [4]; [6]): 33%

O=C(O)c1nc(C(Cl)(Cl)Cl)n(-c2ccc(Cl)cc2Cl)n1 [Fenchlorazole]
% effect (with safener) (Wheat (Triso) [4]; [6]): 10% | % Reduction (Wheat (Triso) [4]; [6]): 67%

COC(=O)c1nc(C2CC2)cc(N)c1Cl [Compound I-2, methyl 4-amino-3-chloro-6-cyclopropyl-2-pyridinecarboxylate]
% effect (without safener) (Barley (Adonis)): 20% | % effect (without safener) (Corn (Aventura) [1]; [7]): 35% | % effect (without safener) (Corn (Aventura) [2]; [8]): 40% | % effect (without safener) (Corn (Aventura) [2]; [7]): 40% | % effect (without safener) (Rice (Ballila); [7]): 30% | % effect (without safener) (Wheat (Triso) [3]; [8]): 20% | % effect (without safener) (Wheat (Triso) [4]; [8]): 30% | % effect (without safener) (Wheat (Triso) [4]; [7]): 30%
